Values joined by “and” are separate entries in the source; they are usually repeats but may differ in a detail not shown here. Identical values can stand only once. “Also recorded” adds a separate entry of the source.
Assays:
[1] = test system: H. pylori binding to an erythrocyte receptor; settings: cited from earlier work; for hemagglutination inhibition (in words): vs NeuAc(2→6)-lactose / NeuAc(2→3)-lactose
[2] = test system: H. pylori binding to HuTu-80 cell monolayer; experiment: H. pylori binding inhibition to HuTu-80 cell monolayers (microtiter, urease readout); format: cell-based, human (HuTu-80); H. pylori; settings: for IC50: Homo sapiens, HuTu80; for activity in inhibiting binding of H. pylori cells, in vitro: in words
Method: The cultures were maintained in Basal medium Eagle containing 10% fetal calf serum in T-75 flasks, at 37° C. and a 5% CO2 atmosphere. Cells were harvested by trypsin/EDTA release and plated on 96-well flat bottom microtiter plates. The microtiter plates were incubated for 2-3 days until the monolayers grew to confluence. Prior to binding inhibition tests, the monolayer was washed with Hanks Balanced Salt solution (HBSS) containing Ca^+2 and Mg^+2, 0.1% BSA, 50 mM HEPES, 0.01 phenol red or HBHPR.
H. pylori bacteria isolates were obtained from B. Marshall (from the University of Virginia) and grown on sheep blood agar, collected at 48 h, washed and suspended in a binding buffer of HBSS+0.1% bovine serum albumin+50 mM HEPES buffer+0.01% phenol red or HBHPR.
The same concentration of bacteria and test compound were combined for 10 minutes, then transferred onto the monolayer. Binding was allowed to occur for 20 min at room temperature under mild agitation. The unbound bacteria was washed away with 1 wash of HBHPR, then 2 washes of the same buffer without HEPES buffer (HBPR).
The presence of bound bacteria is indicated by the presence of bacterial urease which generates NH3, which raises the pH and changes the color to purple, near at OD595.
IC50 in mg/ml was determined for each compound tested. The test data is reported below in Table 1:
IC50 S were determined using the HuTu-80 cell line monolayers.

Helicobacter pylori [3] = experiment: Effectiveness at inhibiting Helicobacter pylori when treating mammals, compared with fetuin; set-up: species or system mammals; H. pylori; settings: vs fetuin
H. pylori [4] = experiment: In vivo animal test: H. pylori colonization in gnotobiotic piglets; set-up: bacterial colonies, colony forming units/gram of gastric epithelium, Experiment A / bacterial colonies, colony forming units/gram of gastric epithelium, Experiment B / bacterial colonies, colony forming units/gram of gastric epithelium, mean ± SD: scale not given here
Method: Gnotobiotic derived piglets (delivered by cesarean section and housed in a germ-free environment) were orally treated with 100 mg of 3'sialyl lactose in 5.0 ml of water.
(§1) Six day old gnotobiotic piglets were orally treated with seven doses of 100 mg each of 3' sialyl lactose, at about 8 hour intervals. As a control, the piglets were administered water. The third administration of 3' sialyl lactose and control was accompanied with 2×10^9 live H. pylori. Two piglets were administered 3'sialyl lactose and 2 piglets were administered the control.
as §1, with “Twenty one” for “Six”, “4×10^9” for “2×10^9”, “Four” for “Two”
The piglets were evaluated by determining bacterial colonies in blood-agar as colony forming units/gram of gastric epithelium (CFU/g). Gastric epithelium homogenates were plated on agar in serial 1:10 dilutions and bacterial colonies were counted on the plates, with 20-200 colonies/plate after 5 days.

H. pylori [5] = settings: in words; cited from earlier work
[6] = in words; cited from earlier work
H. pylori [7] = settings: material treated with neuraminidase; cited from earlier work
Helicobacter pylori [8] = settings: in words; cited from earlier work
Y-1 mouse adrenal cells = settings: in words; cited from earlier work

## α2 -Macroglobulin: Sialoprotein which contains the NeuAc(2→3)Gal isomer of NeuAc-lactose
[1]; hemagglutination inhibition
  concentration needed to produce 100% HAI: 1.000 mg/mL
[1]
  hemagglutination inhibition (in words): also inhibited H. pylori binding, but at higher concentrations

## CC(=O)N[C@H]1[C@H]([C@H](O)[C@H](O)CO)O[C@@](OC[C@H]2O[C@@H](O[C@H]3[C@H](O)[C@@H](O)C(O)O[C@@H]3CO)[C@H](O)[C@@H](O)[C@H]2O)(C(=O)O)C[C@@H]1O (stereo partly drawn) [6' sialyl lactose, N-acetylneuraminyl-α(2→6)-Gal β1→4 Glc, reference compound]
[2]
  IC50: > 10 mM

## CC(=O)N[C@H]1[C@H]([C@H](O)[C@H](O)CO)O[C@@](O[C@H]2[C@@H](O)[C@@H](CO)O[C@@H](O[C@H]3[C@H](O)[C@@H](O)C(O)O[C@@H]3CO)[C@@H]2O)(C(=O)O)C[C@@H]1O (stereo partly drawn) [3' sialyl lactose, N-acetylneuraminyl-α(2→3)-Gal β1→4 Glc]
[1]
  hemagglutination inhibition (in words): preferentially inhibited
[2]
  IC50: 6 mM
  activity in inhibiting binding of H. pylori cells, in vitro: surprisingly strongly inhibits H. pylori
Helicobacter pylori [3]
  times more effective at inhibiting Helicobacter pylori than fetuin: more than 6.41 times
H. pylori [4]; Experiments A and B together
  bacterial colonies, colony forming units/gram of gastric epithelium, mean ± SD: 6.9 ± 5.9 CFU/g
H. pylori [4]; in words, validated through in vivo mammalian test data
  H. pylori binding inhibition in mammals: surprisingly effective inhibitor
H. pylori [4]; six day old piglets, oral, seven doses of 100 mg, 8 hour intervals, 2×10^9 live H. pylori, individual animals
  bacterial colonies, colony forming units/gram of gastric epithelium, Experiment A: 5.44 CFU/g and 0 CFU/g
H. pylori [4]; twenty one day old piglets, oral, seven doses of 100 mg, 8 hour intervals, 4×10^9 live H. pylori, individual animals
  bacterial colonies, colony forming units/gram of gastric epithelium, Experiment B: 4.46 CFU/g and 25.5 CFU/g and 3.71 CFU/g and 2.48 CFU/g

## Colloidal bismuth subcitrate [Colloidal bismuth subcitrate (CBS)]
H. pylori [5]
  eradication of H. pylori: ability to eradicate H. pylori
  relapse rates after cessation of therapy: lower relapse rates
[6]
  effectiveness as a histamine H2 antagonist: effective as a histamine H2 antagonist

## N-acetylneuraminyllactose [reference compound]
H. pylori [7]
  decrease in MFI upon neuraminidase treatment: 16.8%

## #3: fraction # 3 corresponds with pure fetuin
[2]; HuTu-80, fetuin fraction, Expt C
  IC50, Expt C: 1300 µg/mL

## OC[C@H]1O[C@@H](O[C@H]2[C@H](O)[C@@H](O)C(O)O[C@@H]2CO)[C@H](O)[C@@H](O)[C@H]1O (stereo partly drawn) [lactose, reference compound]
[2]
  IC50: > 10 mM

## gangliotriaosylceramide
Helicobacter pylori [8]
  recognition by H. pylori: specifically recognizes

## asialofetuin: asialofetuin
H. pylori [7]
  decrease in MFI upon neuraminidase treatment: 8.6%

## fetuin: Sialoprotein which contains the NeuAc(2→3)Gal isomer of NeuAc-lactose
[1]; hemagglutination inhibition
  concentration needed to produce 100% HAI: 0.500 mg/mL
  times as effective as bovine NeuAc-lactose: 0.156 times
  times as effective as α2-Macroglobulin: about 2 times
[1]
  hemagglutination inhibition (in words): also inhibited H. pylori binding, but at higher concentrations
[2]
  activity in inhibiting binding of H. pylori cells, in vitro: minimal activity
H. pylori [7]
  decrease in MFI upon neuraminidase treatment: 29.8%
Y-1 mouse adrenal cells
  adherence to Y-1 cells: blocked

## gangliotetraosylceramide
Helicobacter pylori [8]
  recognition by H. pylori: specifically recognizes

## phosphatidylethanolamine
Helicobacter pylori [8]
  recognition by H. pylori: receptor; also recorded: specifically recognizes

B1: Glycophorin A: Sialoprotein which contains the NeuAc(2→3)Gal isomer of NeuAc-lactose (protein, UniProt P02724 20-150, looked up)
Glycophorin-A: LSTTEVAMHTSTSSSVTKSYISSQTNDTHKRDTYAATPRAHEVSEISVRTVYPPEEETGERVQLAHHFSEPEITLIIFGVMAGVIGTILLISYGIRRLIKKSPSDVKPLPSPDTDVPLSSVEIENPETSDQ
[1]; hemagglutination inhibition
  concentration needed to produce 100% HAI: 0.250 mg/mL
[1]
  hemagglutination inhibition (in words): also inhibited H. pylori binding, but at higher concentrations

From patent publication US5883079A, “Method for inhibiting H. pylori infection in mammalian tissue” (Neose Technologies, Inc., priority 1998, dated 1999)
